Test results from EP2488179B1, “NRF2 INHIBITORS AND USE THEREOF” (priority 2009, dated 2011).

Tests used:
Format in all cases: cell-based
[1] = system: MB231 breast cancer cells; assay: FACS of propidium iodide stained cells after radiation; details: 1 µM with 5 Gy radiation, 48 hours; compared to 5Gy radiation therapy
Description: (§1) In order to measure whether a treatment of MB231 breast cancer cells and SKOV3 ovarian cancer cells with a combination of 3-[(4-biphenylyloxy)methyl]piperidine chloride, the selected Nrf2 inhibitor, and radiation therapy increase or synergistically increase the killing of cancer cells by apoptosis, the cancer cells were treated with 1 µM 3-[(4-biphenylyloxy)methyl]piperidine hydrochloride, exposed to 5 Gy radiation, and cultured under 5% CO2 conditions at 37°C for 48 hours. The cultured cells were collected and stained with propidium iodide, and cell cycles were analyzed using a fluorescence activated cell sorting (FACS).

[2] = system: SKOV3 ovarian cancer cells; assay: as above; details: 1 µM with 5 Gy radiation, 48 hours; compared to 5Gy radiation therapy
Description: as §1

HO-1 mRNA = assay: Semi-quantitative RT-PCR of HO-1 mRNA; details: inhibitor, then tBHQ after 2 hours; GAPDH control; FIG. 3a
Description: After 2 hours from the treatment of 3-[(4-biphenylyloxy)methyl]piperidine chloride, the selected Nrf2 inhibitor, RNA expression was assayed in order to measure the increase in the amount of heme oxygenase (HO)-1 mRNA by tBHQ treatment. mRNA was isolated from the cells treated with 3-[(4-biphenylyloxy)methyl]piperidine hydrochloride, using an RNA extraction kit (Qiagen, USA) and identified using a spectrometer (Amersham Biosciences, USA). cDNA was obtained from the mRNA using a reverse transcriptase (Promega, USA), and PCR was conducted using the cDNA as a template and primers having sequences SEQ ID NOS: 11 and 12 to measure the expression level of HO-1 mRNA. The PCR was performed with 25 cycles, each of which consisting of a denaturation at 94°C for 30 seconds, an annealing at 55°C for 30 seconds, and an extension at 72°C for 1 minute. The DNA obtained using the PCR was electrophoresed in a 1.5% agarose gel, stained using ethidium bromide, and observed under UV rays. […] It is believed that the 3-[(4-biphenylyloxy)methyl]piperidine hydrochloride that is selected as the Nrf2 inhibitor using the ARE-pGL3 luciferase plasmid in Example 1 acted on the ARE site to inhibit the activity of the Nrf2 transcription factor.

HO-1 protein = assay: Western blotting of HO-1 protein; details: FIG. 3b
Description: (§2) In order to identify whether the 3-[(4-biphenylyloxy)methyl]piperidine hydrochloride, the selected Nrf2 inhibitor, acted on the ARE site to inhibit the binding of the Nrf2 transcription factor, and thereby inhibiting the expression of antioxidant enzymes, protein expression was analyzed. The increase in the amount of HO-1 protein by the tBHQ treatment was assayed after treating cells with the 3-[(4-biphenylyloxy)methyl]piperidine hydrochloride followed by treatment with tBHQ with a 2-hour gap between the treatments. Cytoplasmic fractions were obtained from the cells treated as described above using a method commonly used in the art. The fractions were separated using a 10% gradient SDS-PAGE, and then transferred to a nitrocellulose membrane (BioRad, Hercules, CA, USA). The membrane was blocked with a 5% skim milk and screened with an anti-Nrf2 antibody (Abcam, USA) and a HO-1 antibody (Oncogene Research Products, USA). The result was visualized by a reaction with a horseradish peroxidase-conjugated anti-rat IgG antibody (Santa Cruz Biotechnology, Inc.) using a thermostat and then with an ECL system (GE, USA).

Nrf2 = assay: ARE-pGL3 luciferase reporter assay for screening Nrf2 inhibitors in transformed HEK293 cells
Description: Oligomers including an ARE site (SEQ ID NOS: 1 to 10, Bioneer Corp., Ltd., Korea) were synthesized and treated with Kpnl and M1 ul restriction enzymes. The oligomers were inserted into a pGL3 luciferase plasmid (Promega, USA) treated with the Kpnl and M1ul restriction enzymes using a ligase (Promega, USA) to prepare ARE-pGL3 luciferase. […] Besides the plasmid, pcDNA3.1 (Invitrogen, USA) plasmid including a Neo gene was used together as a selection plasmid to select a transformed cell using G418 (neomycin) as a selectable factor.
HEK293 cells were purchased from the American Type Culture Collection (ATCC) and cultured in a Dulbecco's modified Eagle's medium (DMEM) supplemented with 10% fetal bovine serum (FBS), 100 µg/ml of streptomycin, and 100 units/ml of penicillin under 5% CO2 conditions at 37°C. A transformation by which the ARE-pGL3 luciferase was introduced into the HEK293cell was performed using Lipofectamine 2000™ (Invitrogen, Calsbad, CA, USA). Activity of luciferase was measured using a Luciferase Assay Kit (Promega, Medison, WI, USA). […] Based on the result, ARE-pGL3 luciferase plasmid including 4(1/2)xARE-2 having a sequence of SEQ ID NO: 10 was used as a plasmid for screening an Nrf2 inhibitor.
After the transformation performed according to Example 1-(2), transformed HEK293 cells that expressed both ARE-pGL3 luciferase and pcDNA3.1 were selected using a culture medium including G418 (600µg/ml) and used as a cell line for screening the Nrf2 inhibitor. 20,000 cells were inoculated into each well of a 96-well plate and cultured for 24 hours under the conditions described above in Example 1-(2). […] Transformed cells that stably expressed the ARE-pGL3 luciferase plasmid were selected, and 8,000 candidate substances, low molecular weight single compounds were used to screen the Nrf2 inhibitor. Each candidate substance was added to each well to a final concentration of 10 µM. The wells were incubated for 18 hours, and the luciferase activity was measured using a Victor 3 Luminometer (Perkin Elmer, USA).

Nrf2 protein = assay: Western blotting of Nrf2 protein; details: FIG. 3b
Description: as §2

H1299 lung cancer cells [3] = assay: Clonogenic assay with radiation (methylene blue staining); details: 1, 5, and 10 µM with 2, 4, and 6 Gy radiation, 7 days
Description: (§3) H1299 lung cancer cells, U87-MG brain cancer cells, or HT29 colorectal cancer cells were respectively inoculated into a 6 cm plate including a RPMI 1640 supplemented with 10% FBS, 100 µg/ml of streptomycin, and 100 unit/ml of penicillin. The plate was treated with the selected 1, 5, and 10 µM 3-[(4-biphenylyloxy)methyl]piperidine hydrochloride, the Nrf2 inhibitor, exposed to 2, 4, and 6 Gy -radiation, and cultured under 5% CO2 conditions at 37°C for 7 days. The cultured cells were washed with a phosphate buffered saline (PBS) and stained with a 1% methylene blue in 100% methanol. Then, the number of alive cells that formed colonies was calculated three times.

[4] = system: U87-MG brain cancer cells; assay: as above; details: 1, 5, and 10 µM with 2, 4, and 6 Gy radiation, 7 days
Description: as §3

[5] = system: HT29 colorectal cancer cells; assay: as above; details: 1, 5, and 10 µM with 2, 4, and 6 Gy radiation, 7 days
Description: as §3

H1299 lung cancer cells [6] = assay: CCK-8 viability assay, alone and combined with Doxorubicin; details: 48 hours
Description: (§4) H1299 lung cancer cells, SKOV3 ovarian cancer cells, U87-MG brain cancer cells, and HT29 colorectal cancer cells were respectively inoculated into a 96-well plate including a Rosewell Park Memorial Institute medium 1640 (RPMI 1640) supplemented with 10% FBS, 100 µg/ml of streptomycin, and 100 unit/ml of penicillin. Each well was treated with 0.2, 2, 5, and 10 µM 3-[(4-biphenylyloxy)methyl]piperidine hydrochloride, and then treated with 0.15 µM Doxorubicin, an anti-cancer agent after 2 hours therefrom. The wells were cultured under 5% CO2 conditions at 37°C for 48 hours, and the killing effect of the cancer cells was assayed using a CCK-8 viability assay kit (Dojindo, Japan).

[7] = system: U87-MG brain cancer cells; assay: as above; details: 48 hours
Description: as §4

[8] = system: HT29 colorectal cancer cells; assay: as above; details: 48 hours
Description: as §4

[9] = system: SKOV3 ovarian cancer cells; assay: as above; details: 48 hours
Description: as §4

HEK293 cells = assay: CCK-8 viability assay (absorbance at 450 nm) on the screening cells; details: CCK-8, absorbance at 450 nm, FIG. 2b
Description: In addition, in order to confirm that the inhibition of the luciferase activity is not caused by the death of a cell but by the Nrf2 inhibitor, absorbance was measured using a CCK-8 viability assay kit (Dojindo, Japan) and a spectrometer (Lab Systems, USA) at 450 nm.

[10] = inhibitor then tBHQ with a 2-hour gap, cytoplasmic fractions, concentration-dependent
[11] = 0.2, 2, 5, and 10 µM, then 0.15 µM Doxorubicin after 2 hours, compared to Doxorubicin alone
[12] = compound alone, 0.2, 2, 5, and 10 µM

Cl.c1ccc(-c2ccc(OCC3CCCNC3)cc2)cc1 (stereo not shown) [3-[(4-biphenylyloxy)methyl]piperidine hydrochloride]
killing effect of the combination with radiation [1]: 4.3 times
killing effect of the combination with radiation [2]: twice
expression of HO-1 mRNA (HO-1 mRNA): inhibited in a dose-dependent manner
amount of HO-1 protein (HO-1 protein; [10]): reduced
activity of the luciferase (Nrf2; concentration dependence, FIG. 2a): inhibited the activity of the luciferase in a concentration-dependent manner
activity of the luciferase (Nrf2; screening, final concentration of 10 µM, incubated for 18 hours): inhibits the activity of the luciferase
amount of Nrf2 protein (Nrf2 protein; [10]): reduced
sensitivity of cells to radiation (H1299 lung cancer cells [3]): increased or synergistically increased the sensitivity of cells to radiation
sensitivity of cells to radiation [4]: increased or synergistically increased the sensitivity of cells to radiation
sensitivity of cells to radiation [5]: increased or synergistically increased the sensitivity of cells to radiation
killing effect of a combination with Doxorubicin (H1299 lung cancer cells [6]; [11]): significantly increased in a concentration-dependent manner
effect on the viability (H1299 lung cancer cells [6]; [12]): negligible
killing effect of a combination with Doxorubicin [7, 11]: significantly increased in a concentration-dependent manner
effect on the viability [7, 12]: negligible
killing effect of a combination with Doxorubicin [8, 11]: significantly increased in a concentration-dependent manner
effect on the viability [8, 12]: negligible
killing effect of a combination with Doxorubicin [9, 11]: significantly increased in a concentration-dependent manner
effect on the viability [9, 12]: negligible
cell toxicity (HEK293 cells): does not have cell toxicity

CC(C)(C)c1cc(O)ccc1O [tBHQ, tertiary butylhydroquinone, reference compound]
amount of HO-1 protein (HO-1 protein; treatment with tBHQ): increased
activity of the luciferase (Nrf2; tBHQ added to the culture, activates the ARE): increased twice
amount of Nrf2 protein (Nrf2 protein; treatment with tBHQ): increased
